Publication PMC7069944, “Amino acid levels determine metabolism and CYP450 function of hepatocytes and hepatoma cell lines” (Nature Communications, 2020)
Values joined by “and” are separate entries in the source; they are usually repeats but may differ in a detail not shown here. Identical values can stand only once. Like-named read-outs stand apart in the source and are kept apart here.

Legend:
CYP3A4 [1] = details: HepG2 in AA3+GLY medium with rapamycin
Protocol: Protein amount was measured using a pierce BCA protein assay kit (Thermo Scientific).

CYP3A4 [2] = test: qRT-PCR CYP3A4 expression in HepG2; assay type: cell-based, human
Protocol: AA supplementation was accomplished through the addition of MEM Non-Essential Amino Acids Solution (100 × ) and MEM Amino Acids Solution (50 × ) (Thermo Scientific) to the culture medium. For AA1, AA2, and AA3 medium, we added respectively 2 ml, 8 ml, and 16 ml of non-essential AA solution and 1 ml, 4 ml, and 8 ml of essential AA solution per 100 ml of LDM, with or without glucose. Culture medium was then made PH neutral through the addition of NaOH. […] PSC derived HLCs were differentiated in LDM until D12. AA supplementation (AA1, AA2 and AA3) was performed from day 12 until day 20, 30 or 40 of differentiation. […] HepG2, HUH7.5, Hep3B, HHL5, and HEK293 cells were maintained in DMEM supplemented with 10% fetal bovine serum as shown in Supplementary Table 4. AA supplementation consisted of addition of 16 ml of non-essential AA mix and 8 ml of essential AA mix per 100 ml of medium and a further addition of 20 g/l of any of the single AAs. […] PHHs were maintained in a medium composition that was based on WE as detailed in ref. [67].
RNA extraction was performed using the GenElute Mammalian Total RNA Miniprep Kit (Sigma-Aldrich). Then, genomic DNA was eliminated using the On-Column DNase I Digestion kit (Sigma-Aldrich). Last, 1 µg of RNA was transcribed to cDNA using the Superscript III First-Strand synthesis (Invitrogen). Gene expression analysis was performed using the Platinum SYBR green qPCR supermix-UDG kit (Invitrogen) in a ViiA 7 Real-Time PCR instrument (Thermo Scientific, Waltham, MA). The sequences of all used qRT-PCR primers are listed in Supplementary Table 6. Of these, ribosomal protein L19 (RPL19) was used as a housekeeping gene for normalization.

[3] = tested on: HC6X in the H9-ESC background; test: Single-exposure toxicity, Hoechst/DRAQ7 live cell number, HC6X (H9-ESC); details: for IC50: Homo sapiens
Protocol: (§1) PSCs were differentiated in a 384-well format. Cells were treated with 14 different concentrations of compounds in 6 repeats. As a negative control, 41 wells were left untreated. HepG2 were seeded at 40,000 cells per well. For control conditions, HepG2 were exposed after 2 days of culture. […] Cells were fixed with 4% PFA. Imaging was done using an Operetta High-Content Imaging System (Perkin Elmer) and image analysis was performed using Harmony software (Perkin Elmer). […] As a positive control, 1 donor of PHHs was seeded at 10,000 cells per well. Drugs were administrated after 8 h of attachment.

PHHs = test: Single-exposure toxicity, Hoechst/DRAQ7 live cell number, PHH 12 h; details: Homo sapiens, read-out: IC50 single exposure, Mean
Protocol: as §1

[4] = tested on: HC6X in the BJ1-iPSC background; test: Single-exposure toxicity, Hoechst/DRAQ7 live cell number, HC6X (BJ1-iPSC); details: Homo sapiens
Protocol: as §1

HepG2 = test: Single-exposure toxicity, Hoechst/DRAQ7 live cell number, HepG2; details: for IC50 single exposure, Mean: HepG2 CTL D7; for IC50: Homo sapiens
Protocol: as §1

HLCs = test: Single-exposure toxicity, Hoechst/DRAQ7 live cell number, HLCs
Protocol: as §1

CYP3A4 [5] = test: qRT-PCR CYP3A4 expression in HLCs; assay type: cell-based, human; details: HLCs in AA3 medium with or without 2% of the single amino acid or mix; Figure 4B
Protocol: AA supplementation was accomplished through the addition of MEM Non-Essential Amino Acids Solution (100 × ) and MEM Amino Acids Solution (50 × ) (Thermo Scientific) to the culture medium. For AA1, AA2, and AA3 medium, we added respectively 2 ml, 8 ml, and 16 ml of non-essential AA solution and 1 ml, 4 ml, and 8 ml of essential AA solution per 100 ml of LDM, with or without glucose. Culture medium was then made PH neutral through the addition of NaOH. […] PSC derived HLCs were differentiated in LDM until D12. AA supplementation (AA1, AA2 and AA3) was performed from day 12 until day 20, 30 or 40 of differentiation. […] HepG2, HUH7.5, Hep3B, HHL5, and HEK293 cells were maintained in DMEM supplemented with 10% fetal bovine serum as shown in Supplementary Table 4. AA supplementation consisted of addition of 16 ml of non-essential AA mix and 8 ml of essential AA mix per 100 ml of medium and a further addition of 20 g/l of any of the single AAs. Hepatoma cell lines were plated in normal culture medium, with addition of AA3 + 20 g/l AA once cells reached 60% confluency, and this for 3 or 7 additional days of culture. PHHs were maintained in a medium composition that was based on WE as detailed in ref. [67].
RNA extraction was performed using the GenElute Mammalian Total RNA Miniprep Kit (Sigma-Aldrich). Then, genomic DNA was eliminated using the On-Column DNase I Digestion kit (Sigma-Aldrich). […]

CYP2D6 = CYP2D6 (Homo sapiens, UniProt P10635); test: Drug biotransformation cocktail: dextromethorphan
Protocol: Comparative CYP450 biotransformation studies were performed to assess functionality across a number of gold standard primary hepatocyte models. Cryopreserved PHHs were obtained from a single donor (Lonza, Breda, The Netherlands) or pooled donors (Thermo Scientific, Merelbeke, Belgium). Upon thawing, cell suspensions (0.5 million cells/ml) were prepared in WE medium using 24-well plates (0.5 ml/well) on an orbital shaker and metabolization activity was assessed following a 15 min equilibration period. Human Hepatopac® plates were obtained from Ascendance Biotechnology (Ascendance Biotechnology, Boston USA) and cultures were maintained following instructions of the provider. Spheroid cultures were generated in-house as essentially described by Bell et al.[42].
Finally, the system was re-equilibrated at 60% (A)/40% (B) for an additional 0.7 min. Total run time was 3.8 min and 2 µl aliquots were injected onto the system for analysis.
All data collection, processing, and analysis was performed with Analyst® software (v1.6.2. SCIEX).

[6] = tested on: Co-culture of PHHs and fibroblasts; design: method as in ref 4 (a number printed in a supplementary file, which may have a reference list of its own: not looked up in the article's list); details: 24h, ATP; cited from earlier work
Spheroid of PHHs = tested on: Spheroid of PHHs; design: method as in ref 3 (a number printed in a supplementary file, which may have a reference list of its own: not looked up in the article's list); details: 48h, ATP; cited from earlier work
Cryopreserved PHH = tested on: Cryopreserved PHH; design: method as in ref 16 (a number printed in a supplementary file, which may have a reference list of its own: not looked up in the article's list); details: 48h, ATP; cited from earlier work
Rat hepatocytes = tested on: Rat hepatocytes; design: method as in ref 17 (a number printed in a supplementary file, which may have a reference list of its own: not looked up in the article's list); details: 24h, MTT; cited from earlier work
[7] = tested on: Co-culture of endothelial cells and mouse hepatocytes; design: method as in ref 12 (a number printed in a supplementary file, which may have a reference list of its own: not looked up in the article's list); details: 36h, Cell count; cited from earlier work
PHH = tested on: PHH; design: method as in ref 15 (a number printed in a supplementary file, which may have a reference list of its own: not looked up in the article's list); details: 24h, ALT release; cited from earlier work
[8] = tested on: cells cultured in AAGLY medium; test: Single-exposure toxicity, summary value of this study (Boon et al); assay type: cell-based; details: Homo sapiens, single 24 h exposure
Protocol: To evaluate the ability to predict hepatotoxicity, we adapted the differentiation assays to a 384-well format. […] As a readout, we evaluated cell viability by resazurin conversion and correlated the results to therapeutic doses (Cmax values).
PSCs were differentiated in a 384-well format. […] As a negative control, 41 wells were left untreated. HepG2 were seeded at 40,000 cells per well. […] Cells were fixed with 4% PFA. […] Drugs were administrated after 8 h of attachment.

[9] = single amino acid supplementation, relative to CTL (CTL values equal HepG2 D7 CTL)
[10] = read-out: IC50 single exposure, Mean, H9 HC6X AAGLY D40
[11] = read-out: IC50 single exposure, Mean, H9 HC6X AAGLY D50
[12] = read-out: IC50 single exposure, Mean, BJ1 HC6X AAGLY D40
[13] = read-out: IC50 single exposure, Mean, BJ1 HC6X AAGLY D50
[14] = HepG2, read-out: IC50 single exposure, Mean, HepG2 AAGLY D30
[15] = HepG2, read-out: IC50 single exposure, Mean, HepG2 AAGLY D40

CYP2D6, sequence (P10635 whole entry): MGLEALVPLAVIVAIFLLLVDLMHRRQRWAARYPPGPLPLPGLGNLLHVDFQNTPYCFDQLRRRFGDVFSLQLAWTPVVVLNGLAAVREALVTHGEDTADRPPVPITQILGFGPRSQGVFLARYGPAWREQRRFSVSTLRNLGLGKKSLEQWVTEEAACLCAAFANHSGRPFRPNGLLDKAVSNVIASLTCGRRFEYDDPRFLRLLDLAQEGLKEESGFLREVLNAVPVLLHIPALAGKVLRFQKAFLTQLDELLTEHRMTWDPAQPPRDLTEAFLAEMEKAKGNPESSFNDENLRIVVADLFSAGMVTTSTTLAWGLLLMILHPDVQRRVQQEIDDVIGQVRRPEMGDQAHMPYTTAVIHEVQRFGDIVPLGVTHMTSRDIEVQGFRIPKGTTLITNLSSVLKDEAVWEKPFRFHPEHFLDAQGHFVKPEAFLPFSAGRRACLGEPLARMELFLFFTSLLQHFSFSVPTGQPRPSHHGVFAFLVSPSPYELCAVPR

CO[C@H]1C[C@@H]2CC[C@@H](C)[C@@](O)(O2)C(=O)C(=O)N2CCCC[C@H]2C(=O)O[C@H]([C@H](C)C[C@@H]2CC[C@@H](O)[C@H](OC)C2)CC(=O)[C@H](C)/C=C(\C)[C@@H](O)[C@@H](OC)C(=O)[C@H](C)C[C@H](C)/C=C/C=C/C=C/1C [rapamycin]
effect on AA-mediated induction of CYP3A4 (CYP3A4 [1]): blocked the induction of CYP3A4
Relative CYP3A4 expression (CYP3A4 [2]; HepG2 AAGLY D30 with RAPA): 1.244 and 1.301 and 1.514

N[C@@H](CO)C(=O)O [SER, serine]
Relative CYP3A4 expression (CYP3A4 [2]; [9]): 405.322 and 582.424 and 382.821

C=C(C)[C@H]1Cc2c(ccc3c2O[C@@H]2COc4cc(OC)c(OC)cc4[C@@H]2C3=O)O1 [rotenone]
IC50 [3, 10]: 8.28e-06 mM
IC50 [3, 11]: 4.2e-06 mM
IC50 (PHHs): 1.28e-06 mM
IC50 [4, 12]: 2.56e-06 mM
IC50 [4, 13]: 7.5e-06 mM
IC50 single exposure, Mean (HepG2): No toxicity
IC50 (HepG2; [14]): 8.83e-07 mM
IC50 (HepG2; [15]): 2.51e-06 mM
IC50 single exposure, Mean (HLCs; H9 HLC LDM D40): No toxicity
IC50 (HLCs; Homo sapiens, read-out: IC50 single exposure, Mean): 5.39 nM

C[C@H](N)C(=O)O [ALA, alanine]
Relative CYP3A4 expression (CYP3A4 [2]; [9]): 353.956 and 394.102 and 280.416

CC(C)[C@H](N)C(=O)O [VAL, valine]
relative CYP3A4 expression (compared to LDM 2% DMSO D20) (CYP3A4 [5]): 50.8533 and 59.0748 and 76.4937
Relative CYP3A4 expression (CYP3A4 [2]; [9]): 39.34 and 55.9446 and 51.9815

O=C(O)[C@@H]1CCCN1 [PRO, proline]
Relative CYP3A4 expression (CYP3A4 [2]; [9]): 252.463 and 338.714 and 412.836

COc1ccc2c(c1)[C@]13CCCC[C@@H]1[C@H](C2)N(C)CC3 [Dextrometrophan]
Dextrometrophan biotransformation (cocktail) (CYP2D6; HC6X LDM D40): 0
Dextrometrophan biotransformation (cocktail) (CYP2D6; HepG2 AAGLY D32): 0
Dextrometrophan biotransformation (cocktail) (CYP2D6; HepG2 CTL D4): 0
Dextrometrophan biotransformation (cocktail) (CYP2D6; HepaRG diff D7): 0
Dextrometrophan biotransformation (cocktail) (CYP2D6; Hepatopac): 0.5629 and 0.7098 and 0.9714
Dextrometrophan biotransformation (cocktail) (CYP2D6; PHH1): 15.8656 and 14.7 and 17.4198

CC(=O)Nc1ccc(O)cc1 [APAP, acetaminophen]
IC50 [6]: 5.5 mM
toxicity after single administration ([3]; HC6X cultured in basal medium): no toxicity
IC50 [3, 10]: 12.1 mM
IC50 [3, 11]: 9.91 mM
IC50 (PHHs): 13.3 mM
IC50 (Spheroid of PHHs): 10 mM
IC50 [4, 12]: 12 mM
IC50 [4, 13]: 8.66 mM
IC50 single exposure, Mean (HepG2): no toxicity
toxicity after single administration (HepG2; HepG2 cultured in basal medium): no toxicity
IC50 (HepG2; [14]): 11.9 mM
IC50 (HepG2; [15]): 12 mM
IC50 (Cryopreserved PHH): > 25 mM
IC50 (Rat hepatocytes): 7.6 mM
IC50 [7]: 7 mM
IC50 (PHH): ~10 mM
IC50 [8]: 10 mM
IC50 single exposure, Mean (HLCs; H9 HLC AAGLY D40): No toxicity
IC50 single exposure, Mean (HLCs; H9 HLC LDM D40): No toxicity
toxicity after single administration (HLCs; HLC cultured in basal medium): no toxicity
